Data reported in patent US9925240B2, “Methods of treating and preventing cancer drug resistance” (Genentech, Inc., priority 2013, dated 2018).

Assays:
HCC4006-ER cells = test: Cell viability assay (CellTiter-Glo) in erlotinib-resistant HCC4006-ER cells; type: cell-based; conditions: for Ability to overcome resistance to erlotinib (cell viability, FIG. 3 and FIG. 5): 72 h, in combination with erlotinib
Description: 10^3 cells were plated in each well of 384-well plate. 24 hours after plating, added indicated concentration drug to each well. 72 hours after dosing, added CellTiter-Glo Reagent (CellTiter Glo Luminescent Cell Viability Assay, Promega) to each well, incubate the plate at room temperature for 10 minutes, record luminescence by EnVision 2101 Multilabel Reader (PerkinElmer).
Drug-sensitive cells (HCC4006 and HCC827) were treated with 2 uM erlotinib for 2 months. Fresh media containing 2 uM erlotinib were replaced every 3 to 4 days. Viable cells were collected as erlotinib-resistant cells.

HCC4006 cells = test: Clonogenic assay (crystal violet) in HCC4006 cells; type: cell-based; conditions: erlotinib 1 μM plus PD173074 0.5 μM, continuous treatment, stained at 6 weeks
Description: 10^5 cells were plated in 10 cm^2 plate. 24 hours after plating, media was removed and replaced with media containing indicated drugs. Fresh media was replaced every 3 to 4 days until cells reached confluence (4 weeks) or 6 weeks to stop culture. Media was removed, cells were washed with PBS, then stained with 0.5% crystal violet for 20 minutes at room temperature. Dye was removed, cell monolayers were washed with water, dry the plate and take a picture as record.

## CCN(CC)CCCCNc1ncc2cc(-c3cc(OC)cc(OC)c3)c(NC(=O)NC(C)(C)C)nc2n1 [PD173074, N-[2-[[4-(diethylamino)butyl]amino]-6-(3,5-dimethoxyphenyl)pyrido[2,3-d]pyrimidin-7-yl]-N′-(1,1-dimethylethyl)-urea]
HCC4006-ER cells; HCC4006-ER cells
  Ability to overcome resistance to erlotinib (cell viability, FIG. 3 and FIG. 5): overcame resistance to erlotinib
HCC4006-ER cells; HCC4006-ER cells, with or without erlotinib
  Screen of small molecule inhibitors in the presence or absence of erlotinib (growth inhibition, FIG. 8): could reverse resistance to erlotinib
HCC4006 cells
  Development of resistance to erlotinib (FIG. 6): can suppress the development of resistance to erlotinib

## Nc1nc(Nc2ccc3c(c2)CCC(N2CCCC2)CC3)nn1-c1cc2c(nn1)-c1ccccc1CCC2 (centres unmarked) [R428]
HCC4006-ER cells; HCC4006-ER cells
  Ability to overcome resistance to erlotinib (cell viability, FIG. 3 and FIG. 5): cannot overcome resistance to erlotinib

## C#Cc1cccc(Nc2ncnc3cc(OCCOC)c(OCCOC)cc23)c1 [erlotinib, N-(3-ethynylphenyl)-6,7-bis(2-methoxyethoxy)-4-quinazolinamine]
HCC4006-ER cells; HCC4006-ER vs parental HCC4006, 72 h
  Sensitivity of cells to erlotinib (cell viability, annexin V, FIG. 1A-C): resistant
